Structures can show the parent of a compound that is named as a salt.
Test: Solubility in lipophilic vehicles
Format: physicochemical
Details: lipophilic vehicles like liquid or light liquid paraffin

Cc1ccc(Nc2nccc(N(C)c3ccc4c(C)n(C)nc4c3)n2)cc1S(N)(=O)=O [pazopanib hydrochloride, 5-[[4-[(2,3-Dimethyl-2H-indazol-6-yl)methylamino]-2-pyrimidinyl]amino]-2-methylbenzolsulfonamide]
solubility in lipophilic vehicles: very low
